Test results reported in patent EP4635958A1, “PYRIMIDINE-CONTAINING POLYCYCLIC DERIVATIVE INHIBITOR, AND PREPARATION METHOD THEREFOR AND USE THEREOF” (Shanghai Hansoh Biomedical Co., Ltd., priority 2022, dated 2024).
Read-outs that look alike come from different tables or passages of the source.

Tests used:
[1] = Pharmacokinetic determination in rats (IV and PO, plasma, LCMS/MS); assay type: in vivo, SD rats; details: male SD rats; for AUC(0-inf): read-out: AUCo-∞; for half-life: read-out: T1/2 (converted)
Experimental: SD rats were used as test animals to study the pharmacokinetic behavior of the example compounds in rats (plasma) after oral administration.
The example compounds of the present invention, made in house.
3 SD rats per group, male. Shanghai Jiesijie Experimental Animal Co., Ltd., animal production license number (SCXK (Shanghai) 2013-0006 N0.311620400001794).
Formulation of a drug for oral administration: 10% Captisol in 50 mM citrate buffer pH 5.0.
(§1) Formulation of 50 mM citric acid: 4.8 g of citric acid was weighed into a 1000 ml glass bottle, ultrapure water was added to 300 ml, and the mixture was magnetically stirred until completely dissolved, additional ultrapure water was then added to 500 ml to formulate 50 mM citric acid.
(§2) Formulation of a solution containing 50 mM citric acid (10% Captisol, PH = 5): 50 g of Captisol powder was weighed and added to a 1000 ml glass bottle, 300 ml of 50 mM citric acid was added, and the mixture was magnetically stirred until completely dissolved, then additional citric acid was added to 500 ml, and the PH was adjusted to 5 using 10 M NaOH.
The example compounds were weighed and dissolved in the solution and the mixture was shaken well and subjected to ultrasound treatment for 15 min to obtain a colorless clear solution with a concentration of 3 mg/mL.
(§3) Formulation of a drug for intravenous administration: 5%DMSO+10%Solutol HS15+85%PBS.
(§4) The example compounds were weighed, and 5% DMSO was added according to the total administration volume; the mixture was vortexed and sonicated for 2 min to ensure complete dissolution; then, 10% Solutol HS15 was added, and the mixture was vortexed and sonicated for 2 min to achieve complete dissolution; finally, 85% PBS was added, and the mixture was vortexed and sonicated for 5 min; the obtained mixture was filtered through a 0.22 um membrane to obtain a colorless, transparent, and clear solution with a concentration of 0.2 mg/mL.
3 SD rats per group, male; After overnight fasting, the animals were administered orally (PO) at a dose of 30 mg/kg with an administration volume of 10 mL/kg.
3 SD rats per group, male; After overnight fasting, the animals were administered intravenously (IV) at a dose of 1 mg/kg with an administration volume of 5 mL/kg.
0.2 mL of blood was collected from the jugular vein before administration and at 0.25 h, 0.5 h, 1.0 h, 2.0 h, 4.0 h, 6.0 h, 8.0 h, and 24.0 h after administration and placed in an EDTA-2K test tube, and the test tube was centrifuged at 6000 rpm for 6 min at 4°C to separate the plasma, which was stored at -20°C. the animals were fed 4 h after administration.
The final determination results obtained by applying the LCMS/MS method are shown in the table below: Table 8: Pharmacokinetic parameters of the compounds administered intravenously in rats

GP2D = assay: Inhibition of proliferation of KRAS G12D mutant tumor cell line GP2D (CellTiter-Glo); details: read-out: GP2D IC50
Experimental: Experimental method: When SNU-1, HPAF-II, Panc0403, AsPC-1 or GP2D cells were cultured to the appropriate confluence, and the SNU-1, HPAF-II, Panc0403, AsPC-1 or GP2D cells were collected. The cells were adjusted to the appropriate cell density using complete culture medium, the cell suspension was plated onto a 96-well plate at 90 µL per well, and the plate was placed in the incubator at 37°C and 5% CO2 for adherent culture overnight. Solutions of the compound with different concentrations were formulated using DMSO and culture medium. A vehicle control was set up. […] Then, CellTiter-Glo solution was added, and the obtained mixture was shaken and mixed evenly, incubated in the dark for 10 min, and read with a BioTek Synergy H1 microplate reader. […] Experimental data processing method: The luminescence signal value was used to calculate the inhibition rate. Graphpad Prism software was used to fit the concentration and inhibition rate to a nonlinear regression curve, so as to obtain the IC50 value.

AsPC-1 = assay: Inhibition of proliferation of KRAS G12D mutant tumor cell line AsPC-1 (CellTiter-Glo); assay type: cell-based
Experimental: 1. Experimental objective: The inhibition activity of the example compounds on the proliferation of 5 KRAS G12D mutant cell lines SNU-1, HPAF-II, Panc0403, AsPC-1 and GP2D was determined. 2. Experimental instruments: • 2.1 Instruments: Microplate reader (BioTek Synergy H1); Pipette (Eppendorf & Rainin). • 2.2 Reagents: HPAF-II, PANC0403, AsPC-1 and GP2D were purchased from COBIOER BIOSCIENCES CO., LTD; SNU-1 was purchased from the cell bank of Chinese Academy of Sciences, Cell Titer-Glo was purchased from Promega, with a catalog number of G7573; RPMI 1640 was purchased from Gibco, with a catalog number of 22400089; DMEM was purchased from Gibco, with a catalog number of 11995065; FBS was purchased from Gibco, with a catalog number of 10091148; PBS was purchased from Gibco, with a catalog number of 10010023; trypsin was purchased from Gibco, with a catalog number of 25200056; cell culture plates were purchased from Corning Company, with a catalog number of 3610. 3. Experimental method: When SNU-1, HPAF-II, Panc0403, AsPC-1 or GP2D cells were cultured to the appropriate confluence, and the SNU-1, HPAF-II, Panc0403, AsPC-1 or GP2D cells were collected. The cells were adjusted to the appropriate cell density using complete culture medium, the cell suspension was plated onto a 96-well plate at 90 µL per well, and the plate was placed in the incubator at 37°C and 5% CO2 for adherent culture overnight. Solutions of the compound with different concentrations were formulated using DMSO and culture medium. A vehicle control was set up. The solutions of the compound were added to the 96-well plate at 10 µL per well, and the plate was placed in the incubator at 37°C and 5% CO2 for further culture for about 72 h. Then, CellTiter-Glo solution was added, and the obtained mixture was shaken and mixed evenly, incubated in the dark for 10 min, and read with a BioTek Synergy H1 microplate reader. 4. Experimental data processing method: The luminescence signal value was used to calculate the inhibition rate. Graphpad Prism software was used to fit the concentration and inhibition rate to a nonlinear regression curve, so as to obtain the IC50 value. 5. Experimental results: Table 2: Determination of the inhibition activity of the compounds on the proliferation of KRAS G12D mutant tumor cell line GP2D

[2] = Pharmacokinetic determination in mice (IV and PO, plasma, LCMS/MS); assay type: in vivo, Balb/c mice
Text: • 1. Study objective: Balb/c mice were used as test animals to study the pharmacokinetic behavior of the compounds in mice (plasma) after oral administration. • 2. Test scheme • 2.1 Test drugs: The example compounds of the present invention, made in house; • 2.2 Test animals: Balb/c mice, male, purchased from Shanghai Jiesijie Experimental Animal Co., Ltd., animal production license number (SCXK (Shanghai) 2013-0006 N0.311620400001794). • 2.3 Drug formulation: Formulation of a drug for oral administration: 10% Captisol in 50 mM citrate buffer pH 5.0.
as §1, §2
The example compounds were weighed and added to a 4 mL glass bottle separately, 2.4 mL of the solution was added and the mixture was subjected to ultrasound treatment for 10 min to obtain a colorless clear solution with a concentration of 3 mg/mL.
as §3, §4
3 Balb/c mice, male; After overnight fasting, the animals were administered orally (PO) at a dose of 30 mg/kg with an administration volume of 10 mL/kg.
3 Balb/C mice, male; After overnight fasting, the animals were administered intravenously (IV) at a dose of 1 mg/kg with an administration volume of 5 mL/kg.
0.04 mL of blood was collected from the orbit before administration and at 0.25 h, 0.5 h, 1 h, 2 h, 4 h, 6 h, 8 h, and 24 h after administration and placed in an EDTA-2K test tube, and the test tube was centrifuged at 6000 rpm for 6 min at 4°C to separate the plasma, which was stored at -20°C; the animals were fed 4 h after administration.
The final determination results obtained by applying the LCMS/MS method are shown in the table below: Table 6: Pharmacokinetic parameters of the compounds administered intravenously in mice

[3] = rat, in vivo, PO, 30 mg/kg, overnight fasting, plasma
[4] = rat, in vivo, PO, 30 mg/kg, overnight fasting, plasma, read-out: Cmax
[5] = rat, in vivo, PO, 30 mg/kg, overnight fasting, plasma, read-out: Tmax
[6] = Homo sapiens, ASPC1, about 72 h
[7] = proliferation, about 72 h, CellTiter-Glo
[8] = PO, 30 mg/kg, male Balb/c mice, overnight fasting, plasma
[9] = IV, 1 mg/kg, overnight fasting, plasma
[10] = PO, 30 mg/kg, overnight fasting, plasma
[11] = Balb/c mice, intravenously (IV), 1 mg/kg, plasma

Compound: C#Cc1c(F)ccc2cc(O)cc(-c3nc4c5c(nc(OCC6(CN7CCCC(=C(F)F)CC7)CC6)nc5c3F)N3C[C@H]5CC[C@H](N5)[C@H]3[C@H](C)O4)c12 [Example 132]
- AUC(0-inf) [1, 3]: 2350 ng·h/mL
- Cmax [1, 4]: 246 ng/mL
- Tmax [1, 5]: 2 h
- IC50 (GP2D; Homo sapiens, GP2d, 72 h): 0.24 nM
- IC50 (AsPC-1; [6]): 4.9 nM

Compound: 4-((5S,5aS,6R,9S)-12-((1-((((R)-4-(difluoromethylene)-2-methylpiperidin-1-yl)methyl)cyclopropyl)methoxy)-1-fluoro-5-methyl-5a,6,7,8,9,10-hexahydro-5H-4-oxa-3,10a,11,13,14-pentaaza-6,9-methylnaphtho[1,8-ab]hept-2-yl)-5-ethynyl-6-fluoronaphthalen-2-ol [Example 89]
- IC50 (GP2D; [7]): 0.9 nM
- AUC0-∞ [2, 8]: 1513 ng·h/mL
- Cmax [2, 8]: 259 ng/mL
- T1/2 [2, 8]: 7.7 h
- Tmax [2, 8]: 1.0 h
- IC50 (AsPC-1; about 72 h): 8.9 nM

Compound: C#Cc1c(F)ccc2cc(O)cc(-c3nc4c5c(nc(OCC6(CN7CCC(=C(F)F)C[C@@H]7C)CC6)nc5c3F)N3C[C@H]5CC[C@H](N5)[C@H]3[C@H](C)O4)c12 [Example 90]
- IC50 (GP2D; Homo sapiens, GP2d, 72 h): 0.51 nM
- IC50 (AsPC-1; [6]): 8.8 nM

Compound: 4-((5S,5aS,6R,9S)-12-((1-((((R)-4-(difluoromethylene)-2-methylpiperidin-1-yl)methyl)cyclopropyl)methoxy)-1-fluoro-5-methyl-5a,6,7,8,9,10-hexahydro-5H-4-oxa-3,10a,11,13,14-pentaaza-6,9-methylnaphtho[1,8-ab]hept-2-yl)-5-ethynyl-6-fluoronaphthalen-2-ol [Example 91]
- AUCo-∞ [1, 9]: 660 ng·h/mL
- C0 [1, 9]: 995 ng/mL
- CL [1, 9]: 25.3 mL/min/kg
- T1/2 [1, 9]: 11.9 h
- F ([1]; PO 30 mg/kg vs IV 1 mg/kg): 9.7%
- AUCo-∞ [1, 10]: 1925 ng·h/mL
- Cmax [1, 10]: 251 ng/mL
- T1/2 [1, 10]: 4.8 h
- Tmax [1, 10]: 6.0 h
- IC50 (GP2D; [7]): 0.28 nM
- AUCo-∞ [2, 11]: 366 ng·h/mL
- C0 [2, 11]: 662 ng/mL
- CL [2, 11]: 45.6 mL/min/kg
- T1/2 [2, 11]: 9.3 h
- F ([2]; PO 30 mg/kg vs IV 1 mg/kg, male Balb/c mice): 16.6%
- AUC0-∞ [2, 8]: 1818 ng·h/mL
- Cmax [2, 8]: 295 ng/mL
- T1/2 [2, 8]: 5.7 h
- Tmax [2, 8]: 2.0 h
- IC50 (AsPC-1; about 72 h): 5.8 nM

Compound: [2H]C([2H])(Oc1nc2c3c(nc(-c4cc(O)cc5ccc(F)c(C#C)c45)c(F)c3n1)O[C@@H](C)[C@@H]1[C@@H]3CC[C@H](CN21)N3)C1(C([2H])([2H])N2CCC(=C(F)F)CC2)CC1 [Example 289]
- AUC(0-inf) [1, 3]: 2110 ng·h/mL
- Cmax [1, 4]: 280 ng/mL
- half-life [1, 3]: 6.3 h
- Tmax [1, 5]: 4 h
- IC50 (GP2D; Homo sapiens, GP2d, 72 h): 0.28 nM
- IC50 (AsPC-1; [6]): 5.7 nM

Compound: [2H]C([2H])([2H])C1Oc2nc(-c3cc(O)cc4ccc(F)c(C#C)c34)c(F)c3nc(OCC4(CN5CCC(=CF)CC5C)CC4)nc(c23)N2CC3CCC(N3)C12 (stereo not drawn) [Example 286]
- AUC(0-inf) [1, 3]: 600 ng·h/mL
- Cmax [1, 4]: 50 ng/mL
- half-life [1, 3]: 10.8 h
- Tmax [1, 5]: 2 h
- IC50 (GP2D; Homo sapiens, GP2d, 72 h): 0.32 nM
- IC50 (AsPC-1; [6]): 7.8 nM
